{
  "source": "patent US20090175866A1",
  "about": "“TREATMENT OF B-CELL MALIGNANCIES” (priority 2004, published 2009)",
  "assay_type_in_all_cases": "cell-based, human",
  "key": {"[1]": {"system": "UTMC2 cells", "experiment": "Viability of stimulated UTMC2 myeloma cells (MTT)", "conditions": "100 nM; MTT", "protocol": "(§1) FIG. 2 is a graph showing the viability of human myeloma cell lines in the presence of PRO-001. Viability is reported as the ratio between the optical density (OD) in the presence of FGF±inhibitor and the OD in the absence of FGF.\nFIG. 4 is a graph showing viability of UTMC2 cells treated with FGF, IL6 or IGF-1. The dark bars represent stimulated cells treated with a control antibody; the dotted bar represents stimulated cells treated with 5 μg/ml PRO-001; the square-filled bar represents stimulated cells treated with 100 nM PD173074.\nNon-transformed rat chondrocyte cell line expressing PGFR3 in an inducible manner (RCJ-FGFR3) has been described previously (Rauchenberger R. et al. J. Biol. Chem. 2003; 278:38194-205). […]\n(§2) Cell viability was assessed by 3-(4,5-dimethylthiazol)-2,5-diphenyl tetrazolium (MTT) or (2,3-bis(2-methoxy-4-nitro-5-sulphophenyl)-5-[(phenylamino) carbonyl]-2H-tetrazolium hydroxide (XTT) dye absorbance where indicated. Cells were seeded in 96-well plates at a density of 20,000 (FDCP-1 cells), 5,000 (B9 cells) or 25,000 cells (MM cell lines) per well in culture medium. Cells were incubated in the absence or presence of one of the following cytokines: 10 ng/ml FGF9 and 5 μg/ml heparin, 1% murine IL-6, 50 ng/ml IGF-1 or 50 ng/ml human IL-6 where indicated and increasing concentrations of PRO-001, control antibody (purified human Fab) or 100 nM PD173074. […]"}, "[2]": {"system": "8226 cells", "experiment": "Viability of 8226 myeloma cells (MTT)", "conditions": "100 nM, cells lack FGFR3 expression", "from_the_text": "as §1\n(§3) Non-transformed rat chondrocyte cell line expressing PGFR3 in an inducible manner (RCJ-FGFR3) has been described previously (Rauchenberger R. et al. J. Biol. Chem. 2003; 278:38194-205). Cells were maintained in α-Minimum Essential Media supplemented with 15% fetal calf serum (FCS), 2 mM L-Glutamine, 100 U/ml penicillin, 100 μg/ml streptomycin, 600 μg/ml G418 (Gibco BRL, Ontario, Canada), 2 μg/ml Tetracyclin (Sigma, Ontario, Canada), and 50 μg/ml HygromycinB (Gibco BRL). […]\nas §2"}, "[3]": {"system": "H929 cells", "experiment": "Viability of H929 myeloma cells (MTT)", "conditions": "100 nM", "from_the_text": "as §1, §3, §2"}},
  "data": [
    {"smiles": "CCN(CC)CCCCNc1ncc2cc(-c3cc(OC)cc(OC)c3)c(NC(=O)NC(C)(C)C)nc2n1", "note": "[PD173074, reference compound]", "values": [
      {"measurement": "Inhibition of FGF-stimulated growth of UTMC2", "setting": "[1]", "value": "Inhibition of FGF-stimulated growth of UTMC2 by PRO-001 was comparable to that induced by PD173074"},
      {"measurement": "Cell growth of 8226 cells in the presence of FGF", "setting": "[2]", "value": "resistant"},
      {"measurement": "Cell growth of H929 cells in the presence of FGF", "setting": "[3]", "value": "resistant"}
    ]}
  ]
}
